Key:
[1] = test system: mouse colon cancer cells (C26); experiment: In vitro cytotoxicity, MTT, mouse colon cancer cells C26 (Test Example 3); assay type: cell-based; settings: ordinary medium containing 0.1% glucose
Description: These C26 cells subcultured intraperitoneally in mice were washed with a MEM medium (centrifugation, 1,500 rpm) and then adjusted the number of cells to 10^5/ml. […] Firstly, the above cells were cultured at a normal oxygen partial pressure for 24 to 30 hours, and then the culture medium [Petri dish, 96 wells] was transferred to a microaerobic conditions, which was made by adding a commercially available oxygen absorber to an anaerobic culture chamber, i.e., a hypoxic agent (oxygen absorber), AnaeroPack—Micro aero generator manufactured by Mitsubishi Gas Chemical Company, Inc., Tokyo, was added into an anaerobic culture chamber to be a microaerobic (hypoxic) oxygen partial pressure (6 to 9%). The sealed chamber used in this test was a medium square jar (3.5 L) manufactured by Sugiyama-Gen Co., Ltd., Tokyo. In this state, the reagents to be examined were added to each medium at a predetermined concentration, and further cultured for 36 hours. After that, the number of living cells was measured by the above MTT method.

[2] = Particle size by dynamic light scattering; assay type: physicochemical; settings: 0.1 M tris-HCl buffer (pH 8.2), 15 mg/ml, 25° C.
Description: Then, each solution was measured at 25° C. by a light scattering apparatus, Model ELSZ⋅2000ZS manufactured by Otsuka Electronics (Photal Inc., Osaka).

[3] = Surface charge (Zeta potential); assay type: physicochemical; settings: deionized water, 20 mg/ml
[4] = pH of lyophilized product dissolved in distilled water; assay type: physicochemical
[5] = Solubility of lyophilized product in distilled water; assay type: physicochemical; settings: attempted 10 mg/ml solution
Colon cancer C26 cells = experiment: In vitro cytotoxicity under normoxic and hypoxic partial pressures for 48 hours, C26 cells (Test Example 4); assay type: cell-based, mouse; settings: especially under low oxygen partial pressures
Description: (§1) Colon cancer C26 and HeLa cells (1×10^4 cells/well) were seeded in Falcon 96-well culture plates and cultured overnight at 37° C. in Eagle MEM containing 10% FBS under normoxic partial pressure (5% CO2, 95% air) and hypoxic partial pressure (using a hypoxic chamber, pO2 6-8%). […] Finally, cell viability was analyzed by MTT assay.
(§2) C26 and HeLa cells were also cultured as described above (FIGS. 7A and 7B) and treated with glucosamine (G) and SMA-glucosamine (SG). Finally, cell viability was measured by MTT assay.

HeLa cells [6] = experiment: In vitro cytotoxicity under normoxic and hypoxic partial pressures for 48 hours, HeLa cells (Test Example 4); assay type: cell-based; settings: especially under low oxygen partial pressures
Description: as §1, §2

HeLa cells [7] = settings: aerobic conditions, 24 hours drug treatment
Description: The culture of cells was performed in an Eagle MEM medium supplied with 10% fetal calf serum at 37° C. in 95% air/5% CO2. […] After that, the medium was replaced with a fresh medium and the culture was performed for further 24 hours. Then, viable cells was measured by the MTT method.

[8] = test system: Escherichia coli (E. coli)
Description: (§3) Firstly, in a Falcon plastic plate with 96 wells, 0.1 ml of Mueller-Hinton medium was added to each well, followed by 10 μl of suspension of each bacterium (10^4/well).

Staphylococcus aureus = test system: Staphylococcus aureus
Description: as §3

[9] = 24 hours, 37° C., boric acid equivalent

Molecule | Cytostatic action, rank order [1] | Average particle size (dynamic light scattering method) in diameter [2] | Surface charge (Zeta potential) [3] | Intrinsic pH in solution of lyophilized product in distilled water [4] | Solubility in distilled water [5] | Cytotoxicity (cell viability, MTT) (Colon cancer C26 cells) | Cytotoxicity (cell viability, MTT) (HeLa cells [6]) | Growth of cancer cells (cell viability, MTT) (HeLa cells [7]) | Antibacterial activity compared with boric acid [8] | Concentration of boric acid at which antibacterial activity was shown [8, 9] | Antibacterial activity under more anaerobic conditions ([8]; more anaerobic conditions) | Antibacterial activity compared with boric acid (Staphylococcus aureus) | Concentration of boric acid at which antibacterial activity was shown (Staphylococcus aureus; [9]) | Antibacterial activity under more anaerobic conditions (Staphylococcus aureus; more anaerobic conditions)
N[C@H]1C(O)O[C@H](CO)[C@@H](O)[C@@H]1O (stereo partly shown) [glucosamine, reference compound] | strengthened in the order of (A) free glucosamine, (B) SG and (C) SGB | – | – | – | – | – | – | – | – | – | – | – | – | –
SMA-glucosamine conjugate [SG] | strengthened in the order of (A) free glucosamine, (B) SG and (C) SGB | 90 ± 3 nm | −27 mV | 8.5 | poorly soluble | very potent cytotoxicity | very potent cytotoxicity | – | – | – | – | – | – | –
SMA-glucosamine-boric acid complex [SGB] | strengthened in the order of (A) free glucosamine, (B) SG and (C) SGB | – | – | – | – | – | – | significantly suppressed | stronger antibacterial activity than boric acid | lower than 10 mg/ml | further increased | stronger antibacterial activity than boric acid | lower than 10 mg/ml | further increased
